Experimental findings from patent US20090312411A1, “PREVENTING OR REDUCING RISK OF MISCARRIAGES” (New York Society for the Raptured and Crippled Maintaining …, priority 2008, published 2009) are described below.

Assay [1] concerns murine model of antiphospholipid syndrome (APS). Put plainly: Fetal resorption in murine model of APS (aPL-treated pregnant mice). The format is in vivo. As to conditions: uterus from a mouse treated with aPL+simvastatin, day 15, FIG. 3. On the procedure:
Protocol. […] The stock solution was diluted to the appropriate concentration in sterile PBS.
Protocol. Pregnant C57BL/6 mice were treated with IgG (10 mg i.p.) from a healthy non-autoimmune individual (NH-IgG), or different patients with APS (aPL-IgG) on days 8 and 12 of pregnancy. Mice were sacrificed on day 15 of pregnancy, uteri were dissected, fetuses were weighed, and frequency of fetal resorption calculated (number of resorptions/number of fetuses+number of resorptions).
Protocol. Pregnant mice were treated with pravastatin (0.2 μg/g bw=5 μg/mouse, i.p 18 hours prior to aPL or NHIgG injections on days 8 and 12). Pravastatin (Sigma Chemical, St Louis, Mo.) was dissolved in EtOH at a concentration of 10 mg/mL and diluted with NaCl 0.9% in a ratio of 1:1000 to yield a final concentration of 10 μg pravastatin per 1 mL carrier. The NaCl 0.9%-based carrier solution for the placebo group was prepared accordingly to include EtOH only (i.e., without pravastatin) at a concentration of 1:1000.

In assay [2] the test system is TF. Put plainly: TF on peripheral blood neutrophils, two-color FACS. The format is in vivo, mouse. As to conditions: flow cytometry. On the procedure: (§1) Protocol. To study the presence of TF on peripheral blood neutrophils, two-color FACS analysis was performed. For this purpose heparinized whole mouse blood was stained with FITC-labeled anti-mouse Ly-6G (Gr-1) for FL1 (BD Biosciences Pharmingen, CA) to identify neutrophils and biotinylated rat anti-mTF antibody 1H1 and streptavidin-PerCP (BD Biosciences Pharmingen, CA) as the FL3 fluorochrome. Red cells were lyzed with ACK buffer. Preparations were then incubated with SA-PerCP and analyzed by FACS using a FACscan (BD Biosciences, CA).

For assay [3], the system named is neutrophils. Put plainly: Phagocytosis assay, latex beads, flow cytometry. The class given is in vivo, mouse. On the procedure:
Phagocytosis assay. Heparanized whole blood was incubated (1 h, 37° C., 5% CO2) with 1 μm of fluorescent yellow-green latex beads (Sigma-Aldrich) (ratio phagocyte/target 1:25) that had been preopsonized with normal mouse serum for 1 h. Internalization of beads was determined by flow cytometry using a FACSCalibur (BD Biosciences) flow cytometer.
(In flow cytometry, cells or beads pass a laser one at a time.)

For assay [4], the system named is neutrophils. Nature of the assay: Respiratory burst activity (ROS) in neutrophils, DHR flow cytometry. The format is in vivo, mouse. On the procedure:
Respiratory burst activity in neutrophils. Intracellular reactive oxygen (ROS) production was assessed with dihydrorhodamine 123 (DHR, Sigma Chemical, St Louis, Mo.) by flow cytometry. This primarily non-fluorescent dye becomes fluorescent upon oxidation to rhodamine by ROS produced during the respiratory burst. DHR (10 μmol/L) was added to heparanized whole blood, and this mixture was incubated at 37° C. for 45 min. Red cells were lysed as described above and reactive-oxygen production was analyzed by […] in FL1.

Assay [5] concerns PAR-2. Nature of the assay: PAR-2 on peripheral blood neutrophils, two-color FACS. The class given is in vivo, mouse. The method, then:
as §1, with “Protocol. […] expression on mouse neutrophils.” for “Protocol.”, “PAR-2” for “TF”, “anti-PAR-2” for “rat anti-mTF”, “(Santa Cruz Biotechnology, Inc, Santa Cruz, Calif.)” for “1H1”

The subject of assay [6] is SM9-1 trophoblast cells. Put plainly: SM9-1 trophoblast cell proliferation, light microscopy. The class given is cell-based, mouse. As to conditions: SM9-1 cells incubated with sFlt-1 or monocyte supernatants, 72 hours; VEGF 500 pg/ml; pravastatin 5 μg/ml 3 hours prior. On the procedure:
(§2) Protocol. SM9-1 trophoblast cells, derived from a gestational day 9 Swiss-Webster mouse placenta (SM9-1) (Bowen et al., Biol Reprod 60:428-434.), were incubated with the supernatants from monocytes incubated with C5a containing high levels of sFlt-1 (Girardi et al., 2006, J Exp Med 203:2165-2175). Some SM9-1 cells were incubated in the presence of increasing amounts of mouse sFlt-1 (R&D Systems) (1000, 2000, 4000 and 8000 pg/ml). After 72 hours, cell proliferation was evaluated by light microscopy. Some SM9-1 cells were incubated with pravastatin (5 μg/ml) for 3 hours prior to incubation with sFlt-1. Mouse VEGF (500 pg/ml) (R&D systems) was added to some SM9-1 incubated with sFlt-1 or monocytes supernatants. Immunohistochemical identification of TF with 1H1 and superoxide production by DHE was performed on the SM9-1 cells after 72 hours of culture.
(§3) Protocol. SM9-1 trophoblast cells were prepared as described in Example 21. Isolated SM9-1 cells were incubated in the presence of increasing amounts of mouse sFlt-1 (R&D Systems) (1000, 2000, 4000 and 8000 pg/ml). After 72 hours, cell proliferation was evaluated by light microscopy. SM9-1 cells were also incubated with pravastatin (5 μg/ml) for 3 hours prior to incubation with sFlt-1. Immunohistochemical identification of TF with 1H1 and superoxide production by DHE was performed on the SM9-1 cells after 72 hours of culture as described above.

Assay [7] relates to TF. Nature of the assay: SM9-1 trophoblast TF immunohistochemistry with 1H1. The class given is cell-based, mouse. As to conditions: SM9-1 cells incubated with sFlt-1 or monocyte supernatants, 72 hours; VEGF 500 pg/ml; pravastatin 5 μg/ml 3 hours prior. On the procedure: as §2, §3
Assay [8] deals with SM9-1 trophoblast cells. Nature of the assay: SM9-1 trophoblast superoxide production by DHE. The format is cell-based, mouse. As to conditions: SM9-1 cells incubated with sFlt-1 or monocyte supernatants, 72 hours; VEGF 500 pg/ml; pravastatin 5 μg/ml 3 hours prior. On the procedure:
as §2, §3

The subject of assay [9] is monocytes. Put plainly: sFlt-1 release by monocytes in vitro (ELISA). The class given is cell-based, mouse. As to conditions: 10 nM C5a for 4 h; pravastatin 5 μg/ml for 3 hours prior to C5a. The method, then:
Protocol. Mice with a selective deletion of the TF gene in myeloid cells (TF^floxed/floxed/LysM-Cre mice) (Redecha et al., supra), were used for isolation of monocytes to study sVEGFR-1 production in vitro. Blockade of TF was carried out as in Example 17 by i.p. injections of anti-mTF antibody 1H1.
Protocol. Splenocytes were prepared from non pregnant CBA/J female mice and incubated for 4 h in culture medium supplemented with 10% inactivated fetal bovine serum (FBS). Non adherent cells were removed and adherent cells (>95% peroxidase-positive) were incubated in culture medium with the addition of 10 nM mouse recombinant C5a. A group of adherent monocytes was treated for 3 hours with pravastatin (5 μg/ml) prior to incubation with C5a. After 4 h of incubation with C5a, culture supernatants were collected and analyzed for sVEGFR-1 by ELISA (R&D Systems).
For orientation: ELISA stands for enzyme-linked immunosorbent assay.

Turning to `CCC(C)(C)C(=O)O[C@H]1C[C@@H](C)C=C2C=C[C@H](C)[C@H](CC[C@@H]3C[C@@H](O)CC(=O)O3)[C@H]21` [Simvastatin, simvastatin], in assay [1], the “viable fetuses in uterus” value is reported as 7. The TF is 10 ± 5.7 % of positive cells in assay [2] (aPL + Simvastatin) and 6.6 ± 2.2 % of positive cells in [2] (treatment given alone). In addition, the Phagocytosis in [3] (aPL + Simvastatin) was 16.2 ± 2.9 % of positive cells; in assay [3] (treatment given alone) it was 18.7 ± 1.0 % of positive cells. Besides, the figures for the ROS in [4] (aPL + Simvastatin) and in assay [4] (treatment given alone) were 10.4 ± 5.4 % of positive cells and 10.4 ± 4.5 % of positive cells, respectively. The figures for the “PAR-2 (number of PAR-2 positive cells)” value in [5] (aPL + simvastatin) and in assay [5] (treatment given alone) were 7.4 ± 3.9 and 6.9 ± 2.3, respectively.

With VEGF, the “cell proliferation / cell growth” value in assay [6] is listed as “restored cell proliferation”. In [7], the “TF staining / expression” value is given as “prevented TF expression”. The “superoxide production / oxidative damage (DHE)” value in [8] is listed as “prevented oxidative damage”.

B1: sFlt-1: soluble form of the VEGF-1 receptor, antiangiogenic molecule that sequesters VEGF (R&D Systems) (protein)
chain: YGSGSKLKVPELSLKGTQHVMQAGQTLFLKCRGEAAHSWSLPTTVSQEDKRLSITPPSACGRDNRQFCSTLTLDTAQANHTGLYTCRYLPTSTSKKKKAESSIYIFVSDAGSPFIEMHTDIPKLVHMTEGRQLIIPCRVTSPNVTVTLKKFPFDTLTPDGQRITWDSRRGFIIANATYKEIGLLNCEATVNGHLYQTNYLTHRQTNTILDVQIRPPSPVRLLHGQTLVLNCTATTELNTRVQMSWNYPGKATKRASIRQRIDRSHSHNNVFHSVLKINNVESRDKGLYTCRVKSGSSFQSFNTSVHVYEKGFISVKHRKQPVQETTAGRRSYRLSMKVKAFPSPEIVWLKDGSPATLKSARYLVHGYSLIIKDVTTEDAGDYTILLGIKQSRLFKNLTATLIVNVKPQIYEKSVSSLPSPPLYPLGSRQVLTCTVYGIPRPTITWLWHPCHHNHSKERYDFCTENEESFILDPSSNLGNRIESISQRMTVIEGTNKTVSTLVVADSQTPGIYSCRAFNKIGTVERNIKFYVTDVPNGFHVSLEKMPAEGEDLKLSCVVNKFLYRDITWILLRTVNNRTMHHSISKQKMATTQDYSITLNLVIKNVSLEDSGTYACRARNIYTGEDILRKTEVLVRDSEAPHLLQNLSDYEVSISGSTTLDCQARGVPAPQITWFKNNHKIQQEPGIILGPGNSTLFIERVTEEDEGVYRCRATNQKGAVESAAYLTVQGTSDKSNLE
On to B1, for which the “cell proliferation / cell growth” value in assay [6] was “diminished cell proliferation”. Moreover, in assay [7], the “TF staining / expression” value is “Increased TF staining”. Moreover, the “superoxide production / oxidative damage (DHE)” value in [8] is given as “increased superoxide production”.

B2: C5a: mouse recombinant C5a, complement component used to stimulate monocytes (protein, UniProt P06684 679-755, looked up)
C5a anaphylatoxin: NLHLLRQKIEEQAAKYKHSVPKKCCYDGARVNFYETCEERVARVTIGPLCIRAFNECCTIANKIRKESPHKPVQLGR
modifications: C5a anaphylatoxin
notes: mouse recombinant C5a, complement component used to stimulate monocytes
In the case of B2, in assay [9], the “sFlt-1 released by monocytes” value was 6749 ± 1927 pg/mL.
